Measurements published in ChEMBL document CHEMBL1909553, “Design, synthesis and biological evaluation of substituted 11H-benzo[a]carbazole-5-carboxamides as novel antitumor agents” (Eur J Med Chem, 2011).
Active and inactive are the calls of the source. The rule behind the calls is not given here.

Tests used:
HCT-116 [1] = assay: Antitumor activity against human HCT116 cells transplanted in nude mouse assessed as tumor volume at 15 mg/kg, iv administered three times per week for three weeks relative to control; assay type: functional
Mus musculus = assay: Toxicity in nude mouse xenografted with human HCT116 cells assessed as body weight change at 15 mg/kg, iv administered three times a week for 3 weeks (reference value: 19.4 g); assay type: organism-based, HCT-116; set-up: dose 15 mg/kg, route intravenous; conditions: in vivo, 504 h
HCT-116 [2] = assay: Antitumor activity against human HCT116 cells transplanted in nude mouse assessed as decrease in tumor volume at 15 mg/kg, iv administered three times per week for three weeks measured on day 21 (reference value: 1245 +/- 192 mm'3); assay type: functional
HCT-116 [3] = assay: Growth inhibition of human HCT116 cells measured after 72 hrs by SRB assay; assay type: functional, cell-based; conditions: HCT-116, 72 h
A549 = assay: Growth inhibition of human A549 cells measured after 72 hrs by SRB assay; assay type: functional, cell-based; conditions: A549, 72 h
Nucleic Acid = assay: Binding affinity to linearized Escherichia coli pBR322 DNA assessed as inhibition of T4-DNA ligase-mediated circularization at 100 uM after 30 mins by agarose gel electrophoresis; assay type: nucleic-acid assay
HL-60 [4] = assay: Cell cycle arrest in human HL60 cells assessed as accumulation at G2/M phase at 2 uM after 24 hrs by propidium iodide staining-based flow cytometric analysis relative to control; assay type: functional
HL-60 [5] = assay: Cell cycle arrest in human HL60 cells assessed as accumulation at G2/M phase at 8 uM after 24 hrs by propidium iodide staining-based flow cytometric analysis relative to control; assay type: functional

| IC50 (HCT-116 [3]) [µM] | IC50 (A549) [µM] | Structure (SMILES) | also measured |
| --- | --- | --- | --- |
| – | – | CN(C)CCN1C(=O)c2cccc3cc(N)cc(c23)C1=O.O=C(O)CC(O)(CC(=O)O)C(=O)O [AMONAFIDE CITRATE] | T/C (HCT-116 [1]): 52.74%; Activity (Mus musculus): 14.6 g; Activity (HCT-116 [2]): 664 mm3 |
| 20.1 | 23.1 | CN(C)CCNC(=O)c1cc2c3ccccc3[nH]c2c2cc(N(C)C)ccc12 | – |
| 17 | 19.5 | O=C(NCCN1CCCCC1)c1cc2c3ccccc3[nH]c2c2cc(Br)ccc12 | – |
| 36.2 | 38.4 | CN(C)CCNC(=O)c1cc2c3ccccc3[nH]c2c2cc(N)ccc12 | – |
| 11 | 10.6 | O=C(NCCN1CCCC1)c1cc2c3ccccc3[nH]c2c2cc(Br)ccc12 | – |
| – | – | CN(C)CCCNC(=O)c1cc2c3ccccc3[nH]c2c2cc(Br)ccc12 [listing 1 of 2 here] | inhibition (Nucleic Acid): Active |
| 64.9 | 9.4 | O=C(NCCN1CCOCC1)c1cc2c3ccccc3[nH]c2c2cc(Br)ccc12 | – |
| 17.5 | 25.6 | O=C(NCCNCCO)c1cc2c3ccccc3[nH]c2c2cc(Br)ccc12 | – |
| – | – | CN(C)CCCNC(=O)c1cc2c3ccccc3[nH]c2c2cc(Br)ccc12.O=C(O)CC(O)(CC(=O)O)C(=O)O | T/C (HCT-116 [1]): 58.97%; Activity (Mus musculus): 16.3 g; Activity (HCT-116 [2]): 676 mm3 |
| 9.5 | 8.2 | CN(C)CCCNC(=O)c1cc2c3ccccc3[nH]c2c2cc(Br)ccc12 [listing 2 of 2 here] | Activity (HL-60 [4]): 61.3% |
| 70.3 | 68.4 | O=C(NCCN1CCNCC1)c1cc2c3ccccc3[nH]c2c2cc(Br)ccc12 | – |
| 8.8 | 12.1 | CN(C)CCNC(=O)c1cc2c3ccccc3[nH]c2c2cc(Br)ccc12 | Activity (HL-60 [5]): 48.13%; inhibition (Nucleic Acid): Active |
| 2.2 | 0.4 | CN(C)CCN1C(=O)c2cccc3c2c(cc2c4ccccc4sc32)C1=O | Activity (HL-60 [4]): 52.48%; inhibition (Nucleic Acid): Active |
| 23.8 | 23.8 | CN(C)CCNC(=O)c1cc2c3ccccc3[nH]c2c2ccccc12 | – |
| 16.2 | 17.5 | CNCCNC(=O)c1cc2c3ccccc3[nH]c2c2cc(Br)ccc12 | – |
| > 100 | > 100 | O=C(NCCO)c1cc2c3ccccc3[nH]c2c2cc(Br)ccc12 | – |

| Structure (SMILES) | IC50 (HCT-116 [3]) [µM] | IC50 (A549) [µM] | also measured |
| --- | --- | --- | --- |
| CN(C)CCN1C(=O)c2cccc3cc(N)cc(c23)C1=O [AMONAFIDE] | 15.3 | 8.1 | – |
